Experiments:
[1] = Antioxidant activity assessed as inhibition of copper-induced human LDL oxidation; type: functional
[2] = Antioxidant activity assessed as inhibition of endothelial cell-induced human LDL oxidation; type: functional, cell-based

| IC50 [1] [µM] | IC50 [2] [µM] | Compound |
| --- | --- | --- |
| > 100 |  | O=c1cc(-c2ccc(O)cc2)oc2cc(O)ccc12 |
| 0.1 |  | CC(C)(C)c1cc(-c2cc(=O)c3ccc(OCC(O)CO)cc3o2)cc(C(C)(C)C)c1O (stereo not drawn) |
| 1 |  | COc1ccc2c(=O)cc(-c3cc(C(C)(C)C)c(O)c(C(C)(C)C)c3)oc2c1 |
| > 100 |  | COc1ccc2c(=O)cc(-c3cc(C(C)(C)C)c(OC)c(C(C)(C)C)c3)oc2c1 |
| 0.1 |  | CC(C)(C)c1cc(-c2cc(=O)c3ccc(OCC(=O)O)cc3o2)cc(C(C)(C)C)c1O [listing 1 of 2 here] |
| 5 |  | CCCCCOC(=O)COc1ccc2c(=O)cc(-c3cc(C(C)(C)C)c(O)c(C(C)(C)C)c3)oc2c1 |
| 3 |  | CC(C)(C)c1cc(-c2cc(=O)c3ccc(OCC(=O)N4CCCCC4)cc3o2)cc(C(C)(C)C)c1O |
| 3 |  | CC(C)(C)c1cc(-c2cc(=O)c3ccc(OCc4ccc5ccccc5n4)cc3o2)cc(C(C)(C)C)c1O |
| 0.7 |  | CN(C)CCCOc1ccc2c(=O)cc(-c3cc(C(C)(C)C)c(O)c(C(C)(C)C)c3)oc2c1 |
| 3 |  | CCOC(=O)CCCCOc1ccc2c(=O)cc(-c3cc(C(C)(C)C)c(O)c(C(C)(C)C)c3)oc2c1 |
| 0.5 |  | CC(C)(C)c1cc(-c2cc(=O)c3ccc(OCCCS(=O)(=O)O)cc3o2)cc(C(C)(C)C)c1O |
| 3 | 2.5 | CC(C)(C)c1cc(-c2cc(=O)c3ccccc3o2)cc(C(C)(C)C)c1O |
| 7 |  | CC(C)(C)c1cc(-c2cc(=O)c3ccc(OCc4ccc(Cl)cc4)cc3o2)cc(C(C)(C)C)c1O |
| 3 | 0.5 | CCOC(=O)C(C)(C)Oc1ccc2c(=O)cc(-c3cc(C(C)(C)C)c(O)c(C(C)(C)C)c3)oc2c1 |
| 5 | 50 | CCCCCCOc1ccc2c(=O)cc(-c3cc(C(C)(C)C)c(O)c(C(C)(C)C)c3)oc2c1 |
| 30 | 70 | CC(C)(C)c1cc(C(=O)Oc2ccc3c(=O)cc(-c4cc(C(C)(C)C)c(O)c(C(C)(C)C)c4)oc3c2)cc(C(C)(C)C)c1O |
| 3 |  | CC(C)(C)c1cc(-c2cc(=O)c3ccc(OCC(=O)N4CCN(Cc5ccccc5)CC4)cc3o2)cc(C(C)(C)C)c1O |
| 3 | 0.5 | CC(C)(C)c1cc(-c2cc(=O)c3ccc(OCC(=O)O)cc3o2)cc(C(C)(C)C)c1O [listing 2 of 2 here] |
| 3 |  | CCN(CC)C(=O)COc1ccc2c(=O)cc(-c3cc(C(C)(C)C)c(O)c(C(C)(C)C)c3)oc2c1 |
| 0.7 |  | CN(C)CCOc1ccc2c(=O)cc(-c3cc(C(C)(C)C)c(O)c(C(C)(C)C)c3)oc2c1 |
| 3 |  | CC(C)(C)c1cc(-c2cc(=O)c3ccc(OCCO)cc3o2)cc(C(C)(C)C)c1O |
| 3 | 0.8 | CCOC(=O)COc1ccc2c(=O)cc(-c3cc(C(C)(C)C)c(O)c(C(C)(C)C)c3)oc2c1 |
| 0.8 | 0.8 | CC(C)(C)c1cc(-c2cc(=O)c3ccc(OCCN4CCOCC4)cc3o2)cc(C(C)(C)C)c1O |
| 1 | 2 | CC(C)(C)c1cc(-c2cc(=O)c3ccc(O)cc3o2)cc(C(C)(C)C)c1O |
| > 100 |  | O=c1cc(-c2ccc(O)cc2)oc2cc(O)cc(O)c12 [APIGENIN] |
| 3 |  | Cc1cc(C(C)(C)C)c(O)c(C(C)(C)C)c1 [BUTYLATED HYDROXYTOLUENE] |
| 3 | 4 | CC(C)(Sc1cc(C(C)(C)C)c(O)c(C(C)(C)C)c1)Sc1cc(C(C)(C)C)c(O)c(C(C)(C)C)c1 [PROBUCOL] |
| > 100 | 4 | VITAMIN E |

From ChEMBL document CHEMBL1150096, “Synthesis and evaluation of 3',5'-di-tert-butyl-4'-hydroxyflavones as potential inhibitors of low density lipoprotein (LDL) oxidation” (J Nat Prod, 1995)
